{
  "source": "patent US20060247323A1",
  "about": "“Stabilisation of light sensitive substances” (priority 2000, published 2006)",
  "test_system": "cockroaches",
  "assay": "Biological knockdown of cockroaches on glass plates sprayed with diluted d-phenothrin emulsions I, J and neat d-phenothrin",
  "assay_type": "in vivo",
  "conditions": "30 mg active pesticide/m^2",
  "protocol": "Samples of the emulsions I and J and neat d-phenothrin are diluted in water and sprayed onto a glass plates to give a concentration of 30 mg active pesticide/m^2. The samples are tested for biological knockdown of cockroaches for 15 minute and 24 hour exposure on the plates and the effectiveness of the pesticide on the treated plates monitored periodically under light and dark conditions. The results of the tests conducted in daylight are shown in Table 3. and those conducted in the dark are shown Table 4.",
  "key": {"[1]": {"conditions": "daylight, 7 days after application to plates"}, "[2]": {"conditions": "daylight, 14 days after application to plates"}, "[3]": {"conditions": "daylight, 21 days after application to plates"}, "[4]": {"conditions": "daylight, 49 days after application to plates"}, "[5]": {"conditions": "daylight, 63 days after application to plates"}, "[6]": {"conditions": "daylight, 91 days after application to plates"}},
  "data": [
    {"smiles": "CC(C)=CC1C(C(=O)OCc2cccc(Oc3ccccc3)c2)C1(C)C", "note": "(stereo not drawn) [phenothrin, d-phenothrin]", "values": [
      {"measurement": "% Kill after 15 minute exposure", "setting": "dark, 1 day after application to plates", "result": 100, "unit": "%"},
      {"measurement": "% Kill after 15 minute exposure", "setting": "dark, 7 days after application to plates", "result": 100, "unit": "%"},
      {"measurement": "% Kill after 15 minute exposure", "setting": "dark, 14 days after application to plates", "result": 100, "unit": "%"},
      {"measurement": "% Kill after 15 minute exposure", "setting": "dark, 21 days after application to plates", "result": 100, "unit": "%"},
      {"measurement": "% Kill after 15 minute exposure", "setting": "dark, 49 days after application to plates", "result": 100, "unit": "%"},
      {"measurement": "% Kill after 15 minute exposure", "setting": "dark, 63 days after application to plates", "result": 100, "unit": "%"},
      {"measurement": "% Kill after 15 minute exposure", "setting": "dark, 91 days after application to plates", "result": 100, "unit": "%"},
      {"measurement": "% Kill after 15 minute exposure", "setting": "daylight, 1 day after application to plates", "result": 100, "unit": "%"},
      {"measurement": "% Kill after 15 minute exposure", "setting": "[1]", "result": 0, "unit": "%"},
      {"measurement": "% Kill after 24 hour exposure (in brackets)", "setting": "[1]", "result": 10, "unit": "%"},
      {"measurement": "% Kill after 15 minute exposure", "setting": "[2]", "result": "0 (0) %"},
      {"measurement": "% Kill after 24 hour exposure (in brackets)", "setting": "[2]", "result": "0 (0) %"},
      {"measurement": "% Kill after 15 minute exposure", "setting": "[3]", "result": 10, "unit": "%"},
      {"measurement": "% Kill after 24 hour exposure (in brackets)", "setting": "[3]", "result": 0, "unit": "%"},
      {"measurement": "% Kill after 15 minute exposure", "setting": "[4]", "result": "10 (10) %"},
      {"measurement": "% Kill after 24 hour exposure (in brackets)", "setting": "[4]", "result": "10 (10) %"},
      {"measurement": "% Kill after 15 minute exposure", "setting": "[5]", "result": 10, "unit": "%"},
      {"measurement": "% Kill after 24 hour exposure (in brackets)", "setting": "[5]", "result": 40, "unit": "%"},
      {"measurement": "% Kill after 15 minute exposure", "setting": "[6]", "result": "0 (0) %"},
      {"measurement": "% Kill after 24 hour exposure (in brackets)", "setting": "[6]", "result": "0 (0) %"}
    ]}
  ]
}
